A short description of series [1]: Thermal stability (decomposition point). The class given is physicochemical.
Series [2] in a line: Solubility in ether or THF. The class given is physicochemical. The method, then:
To 80 mg 1-mesityl-3-tetradecyl imidazolium tetrafluoroborate (Example 97) 4 ml diethylether or 2 ml tetrahydrofuran are added.

In the case of “1-butyl-3-mesitylimidazolium bis(trifluoromethylsulfone)imide [Example 70]”, in series [1], the Decomposition point was 440 °C.

Turning to “1-heptyl-3-mesitylimidazolium bis(trifluoromethylsulfone)imide [Example 73]”, the Decomposition point in series [1] was found to be 440 °C.

As to “1-hexyl-3-mesitylimidazolium bis(trifluoromethylsulfone)imide [Example 72]”, the Decomposition point in series [1] was 440 °C.

In series [1], “1-mesityl-3-pentylimidazolium bis(trifluoromethylsulfone)imide [Example 71]” registered a Decomposition point of 440 °C.

“1-mesityl-3-propylimidazolium bis(trifluoromethylsulfone)imide [Example 69]”: in series [1], the Decomposition point stood at 440 °C.

`CCCCCCCCCCCCCC[n+]1ccn(-c2c(C)cc(C)cc2C)c1.F[B-](F)(F)F` [1-mesityl-3-tetradecyl imidazolium tetrafluoroborate]: the solubility in tetrahydrofuran result in series [2] (80 mg in 2 ml tetrahydrofuran) was “dissolved easily”. For the same compound, the solubility in diethylether result in series [2] (80 mg in 4 ml diethylether) is given as “not dissolved”.

For the origin of these results see US9260397B2, “Salts comprising aryl-alkyl-substituted imidazolium and triazolium cations and the use thereof” (TECHNISCHE UNIVERSITAET DRESDEN, priority 2008, dated 2016).
